Measured values as given in US20260207614A1, “IRAK4 DEGRADERS AND USES THEREOF” (Kymera Therapeutics, Inc., priority 2022, published 2026).

Experiments:
[1] = test system: disease-relevant cytokines ex vivo; experiment: Phase 1 Part C ex vivo cytokine stimulation assays; format: in vivo, human
From the text: Plots show median of the maximum change from baseline between Days 7-14 in MAD3 and Days 14-28 in Part C.
IL-36, IFN-g, IL-8, IL-5, GZMB and COX2 in HS and IL-5, IL-31, NLRP3, CXCL1 and IL-2RB in AD (FIG. 25A-B).

[2] = Phase 1 MAD safety; format: in vivo, human; conditions: multiple daily doses over 14 days up to 200 mg (MAD 4)
From the text: Steady-state plasma levels were reached by Day 7, with approximately 3-fold increase in exposure on Day 14 compared to Day 1.

[3] = test system: patients with hidradenitis suppurativa (HS); experiment: Phase 1 Part C clinical efficacy in hidradenitis suppurativa; format: in vivo, human; conditions: for ΔAN Count / ΔPain NRS / ΔPeak Pruritis NRS / Responders: AN Count 0/1/2 / Responders: HiSCR50 / Responders: HiSCR75 / Responders: Pain NRS30: HS; for ΔAN Count: deepest reduction across Days 28 through 42; for ΔPain NRS / ΔPeak Pruritis NRS: deepest reduction, past week; for Responders: AN Count 0/1/2 / Responders: HiSCR50 / Responders: HiSCR75 / Responders: Pain NRS30: highest response across Days 28 through 42
From the text: Baseline Characteristics and Disposition: A total of 21 patients were enrolled in the trial, including 13 HS and 8 AD patients, with median age 31-40 years (13 female, 8 male). Disease severity for HS was moderate (10), severe (1) and very severe (2) and for AD was mild (1), moderate (5) and severe (2). One HS and 1 AD patient withdrew from treatment early due to personal reasons, resulting in 12 HS and 7 AD patients evaluable for PD and clinical efficacy.
HS clinical endpoints collected in the study included AN count, Pain NRS. Pruritus NRS and HS-PGA. […] Analyses were done for all patients, including very severe (n=12), and for patients with only moderate to severe disease (n=10).

[4] = biological target: P-glycoprotein (P-gp) (Homo sapiens, UniProt P08183); experiment: P-gp substrate assessment in vitro; format: in vitro ADME
Sequence of P-glycoprotein (P-gp) (P08183 whole entry): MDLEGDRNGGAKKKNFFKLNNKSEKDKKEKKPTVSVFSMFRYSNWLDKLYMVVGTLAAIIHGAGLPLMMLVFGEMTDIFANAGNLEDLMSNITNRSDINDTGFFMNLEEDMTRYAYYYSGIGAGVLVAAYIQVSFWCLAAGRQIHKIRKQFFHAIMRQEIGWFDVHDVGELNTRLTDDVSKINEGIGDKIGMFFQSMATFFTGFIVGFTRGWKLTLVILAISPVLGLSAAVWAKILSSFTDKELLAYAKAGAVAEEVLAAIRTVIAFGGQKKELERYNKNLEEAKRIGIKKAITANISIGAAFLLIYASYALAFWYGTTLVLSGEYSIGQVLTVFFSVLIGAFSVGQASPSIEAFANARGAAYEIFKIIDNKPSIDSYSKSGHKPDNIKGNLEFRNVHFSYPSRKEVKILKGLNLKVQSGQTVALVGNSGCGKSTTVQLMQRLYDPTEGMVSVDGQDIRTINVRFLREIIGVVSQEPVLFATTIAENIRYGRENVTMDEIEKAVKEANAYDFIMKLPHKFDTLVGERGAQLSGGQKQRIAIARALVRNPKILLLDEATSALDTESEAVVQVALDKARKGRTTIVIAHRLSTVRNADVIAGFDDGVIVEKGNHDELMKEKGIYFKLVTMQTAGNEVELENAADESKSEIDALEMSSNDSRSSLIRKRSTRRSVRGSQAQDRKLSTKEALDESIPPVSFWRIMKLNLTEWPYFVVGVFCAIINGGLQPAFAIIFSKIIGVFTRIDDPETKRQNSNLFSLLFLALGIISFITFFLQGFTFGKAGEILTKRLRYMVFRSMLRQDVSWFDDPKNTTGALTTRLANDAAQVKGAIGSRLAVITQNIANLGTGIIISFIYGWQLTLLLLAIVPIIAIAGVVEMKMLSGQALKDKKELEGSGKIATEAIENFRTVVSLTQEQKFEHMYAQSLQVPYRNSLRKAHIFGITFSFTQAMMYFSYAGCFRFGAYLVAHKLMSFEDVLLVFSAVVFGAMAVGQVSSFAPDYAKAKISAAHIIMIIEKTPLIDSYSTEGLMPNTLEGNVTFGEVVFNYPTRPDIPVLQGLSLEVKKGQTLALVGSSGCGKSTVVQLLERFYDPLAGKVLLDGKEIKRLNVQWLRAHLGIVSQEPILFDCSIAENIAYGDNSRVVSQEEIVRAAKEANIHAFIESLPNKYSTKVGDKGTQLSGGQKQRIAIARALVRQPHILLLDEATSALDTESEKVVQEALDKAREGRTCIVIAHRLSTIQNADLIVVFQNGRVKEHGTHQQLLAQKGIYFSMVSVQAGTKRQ
From the text: (§1) In in vivo pharmacokinetic (PK) studies conducted in rats, dogs, and monkeys.
(§2) Metabolites generated in liver microsomes from humans were also detected in those from rat, dog, and monkey. In the in vitro drug-drug interaction studies.

[5] = In vivo PK studies in rats, dogs and monkeys
From the text: as §1

[6] = Excretion study in bile duct-cannulated (BDC) rats; format: in vivo
[7] = test system: R848 (TLR7)-stimulated cytokine induction in whole blood; experiment: Phase 1 SAD ex vivo R848-stimulated cytokine induction in whole blood; parameters: species or system human
[8] = test system: imiquimod psoriasis model (TLR 7/8-dependent); experiment: Imiquimod psoriasis model; format: in vivo, murine
From the text: Overall, efficacy was associated with achieving at least 80% or more IRAK4 knockdown in associated tissues in the model systems.

[9] = Phase 1 Part C Compound A skin concentration; format: in vivo, human; conditions: FIG. 20, Day 28
[10] = biological target: CYP3A4 (Homo sapiens, UniProt P08684); experiment: In vitro drug-drug interaction and metabolism studies, CYP3A4; format: in vitro ADME
Sequence of CYP3A4 (P08684 whole entry): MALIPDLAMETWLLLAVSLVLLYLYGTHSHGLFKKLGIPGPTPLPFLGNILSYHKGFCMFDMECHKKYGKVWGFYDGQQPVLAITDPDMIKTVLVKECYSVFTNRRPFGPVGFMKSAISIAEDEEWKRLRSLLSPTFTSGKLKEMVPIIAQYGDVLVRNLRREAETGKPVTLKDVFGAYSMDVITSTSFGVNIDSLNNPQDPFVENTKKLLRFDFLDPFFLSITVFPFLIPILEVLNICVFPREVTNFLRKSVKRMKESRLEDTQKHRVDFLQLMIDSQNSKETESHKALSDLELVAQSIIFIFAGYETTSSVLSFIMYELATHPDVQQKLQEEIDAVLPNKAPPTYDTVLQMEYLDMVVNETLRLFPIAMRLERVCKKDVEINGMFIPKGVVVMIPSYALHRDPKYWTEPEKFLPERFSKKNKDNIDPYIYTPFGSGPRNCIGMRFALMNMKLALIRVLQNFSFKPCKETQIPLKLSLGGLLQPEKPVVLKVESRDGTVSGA
From the text: as §2

[11] = biological target: T1, breast cancer resistance protein (BCRP) (Homo sapiens, UniProt Q9UNQ0); experiment: BCRP substrate and efflux inhibition in vitro; format: in vitro ADME
T1 sequence (Q9UNQ0 1-655): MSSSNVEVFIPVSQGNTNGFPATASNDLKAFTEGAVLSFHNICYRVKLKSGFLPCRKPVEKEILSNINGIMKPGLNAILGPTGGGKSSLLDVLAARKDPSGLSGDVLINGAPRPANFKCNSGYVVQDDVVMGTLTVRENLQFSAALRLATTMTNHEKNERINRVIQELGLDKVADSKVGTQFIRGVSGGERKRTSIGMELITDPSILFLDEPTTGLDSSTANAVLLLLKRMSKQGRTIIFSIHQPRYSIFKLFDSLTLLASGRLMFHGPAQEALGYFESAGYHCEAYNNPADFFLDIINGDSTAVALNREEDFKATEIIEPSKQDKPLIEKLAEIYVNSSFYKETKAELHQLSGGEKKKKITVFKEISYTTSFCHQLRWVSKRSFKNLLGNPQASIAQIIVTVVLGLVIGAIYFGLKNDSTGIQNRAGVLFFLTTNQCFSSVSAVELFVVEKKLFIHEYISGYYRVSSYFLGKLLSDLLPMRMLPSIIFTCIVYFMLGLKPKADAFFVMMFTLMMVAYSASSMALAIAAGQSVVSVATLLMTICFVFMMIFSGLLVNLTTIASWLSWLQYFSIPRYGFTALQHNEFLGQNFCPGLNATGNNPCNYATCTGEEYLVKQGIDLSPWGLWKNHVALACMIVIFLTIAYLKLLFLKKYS
From the text: as §1, §2

[12] = R848, whole blood, 24-48 hours, Cohort 7

Cn1c(=O)n([C@@H]2CCC(=O)NC2=O)c2cccc(C#CCOC3CCN(C[C@H]4CC[C@H](n5cc(NC(=O)c6cnn7ccc(N8C[C@H]9C[C@@H]8CO9)nc67)c(C(F)F)n5)CC4)CC3)c21 [Compound A, 5-((1R,4R)-2-oxa-5-azabicyclo[2.2.1]heptan-5-yl)-N-(3-(difluoromethyl)-1-((1r,4R)-4-((4-((3-(1-(2,6-dioxopiperidin-3-yl)-3-methyl-2-oxo-2,3-dihydro-1H-benzo[d]imidazol-4-yl)prop-2-yn-1-yl)oxy)piperidin-1-yl)methyl)cyclohexyl)-1H-pyrazol-4-yl)pyrazolo[1,5-a]pyrimidine-3-carboxamide]
inhibition of disease-relevant cytokines ex vivo, maximum ([1]; AD patients): up to 98% | cytokine inhibition, IFN-γ ([1]; AD patients, FIG. 23): up to 95% | cytokine inhibition, IL-1β ([1]; AD patients, FIG. 23): up to 81% | cytokine inhibition, IL-6 ([1]; AD patients, FIG. 23): up to 74% | cytokine inhibition, IL-8 ([1]; AD patients, FIG. 23): up to 85% | cytokine inhibition, IL-10 ([1]; AD patients, FIG. 23): up to 98% | cytokine inhibition, IL-12 ([1]; AD patients, FIG. 23): up to 76% | cytokine inhibition, IL-17 ([1]; AD patients, FIG. 23): up to 83% | cytokine inhibition, IL-23 ([1]; AD patients, FIG. 23): up to 95% | cytokine inhibition, TNF-α ([1]; AD patients, FIG. 23): up to 74% | inhibition of disease-relevant cytokines ex vivo, maximum ([1]; HS patients): up to 84% | cytokine inhibition, IFN-γ ([1]; HS patients, FIG. 23): up to 76% | cytokine inhibition, IL-1β ([1]; HS patients, FIG. 23): up to 57% | cytokine inhibition, IL-6 ([1]; HS patients, FIG. 23): up to 50% | cytokine inhibition, IL-8 ([1]; HS patients, FIG. 23): up to 59% | cytokine inhibition, IL-10 ([1]; HS patients, FIG. 23): up to 52% | cytokine inhibition, IL-12 ([1]; HS patients, FIG. 23): up to 84% | cytokine inhibition, IL-17 ([1]; HS patients, FIG. 23): up to 46% | cytokine inhibition, TNF-α ([1]; HS patients, FIG. 23): up to 54% | inhibition of 9 disease-relevant cytokines ex vivo, maximum ([1]; HS/AD patients, median of maximum change from baseline Days 14-28): up to 98% | safety and tolerability [2]: safe and well-tolerated | disease severity in patient HS-10 ([3]; FIG. 36): from moderate to mild | AN count of 0/1/2 response rate ([3]; HS patients, FIG. 30): 42-50% | AN count reduction ([3]; HS patients, FIG. 30): 46-51% | HiSCR50 response rate ([3]; HS patients, FIG. 31): 42-50% | reduction in Pain NRS ([3]; HS patients, FIG. 32): 49-50% | response rate in Pain NRS30 ([3]; HS patients, FIG. 32): 50-60% | reduction in Peak Pruritus NRS ([3]; HS patients, FIG. 33): 62-68% | ΔAN Count ([3]; All Patients (n = 12)): −46% | ΔPain NRS ([3]; All Patients (n = 12)): −49% | ΔPeak Pruritis NRS ([3]; All Patients (n = 12)): −62% | Responders: AN Count 0/1/2 ([3]; All Patients (n = 12)): 42% | Responders: HiSCR50 ([3]; All Patients (n = 12)): 42% | Responders: HiSCR75 ([3]; All Patients (n = 12)): 25% | Responders: Pain NRS30 ([3]; All Patients (n = 12)): 50% | ΔAN Count ([3]; Moderate/Severe (n = 10)): −51% | ΔPain NRS ([3]; Moderate/Severe (n = 10)): −55% | ΔPeak Pruritis NRS ([3]; Moderate/Severe (n = 10)): −68% | Responders: AN Count 0/1/2 ([3]; Moderate/Severe (n = 10)): 50% | Responders: HiSCR50 ([3]; Moderate/Severe (n = 10)): 50% | Responders: HiSCR75 ([3]; Moderate/Severe (n = 10)): 50% | Responders: Pain NRS30 ([3]; Moderate/Severe (n = 10)): 60% | HS-PGA scores ([3]; all HS patients): stable or improved (5 of 12) | lesions and symptoms in patient HS-3 ([3]; moderate disease at baseline, FIG. 35): complete clearing of lesions and symptoms | substrate of P-glycoprotein (P-gp) [4]: substrate | bioavailability [5]: low to moderate | clearance [5]: moderate to high | terminal half-life [5]: moderate | volume of distribution at steady state [5]: high | biliary and intestinal excretion as parent drug [6]: minor to moderate | renal clearance [6]: negligible | Mean Maximum Percent Change from Baseline in ex vivo IFNγ induction [7, 12]: −97%^2 | Mean Maximum Percent Change from Baseline in ex vivo IL1β induction [7, 12]: −92%^1 | Mean Maximum Percent Change from Baseline in ex vivo IL6 induction [7, 12]: −88%^1 | Mean Maximum Percent Change from Baseline in ex vivo IL8 induction [7, 12]: −54%^ | Mean Maximum Percent Change from Baseline in ex vivo IL10 induction [7, 12]: −89%^1 | Mean Maximum Percent Change from Baseline in ex vivo IL12 induction [7, 12]: −93%^1 | Mean Maximum Percent Change from Baseline in ex vivo IL17 induction [7, 12]: −79%^1 | Mean Maximum Percent Change from Baseline in ex vivo TNFα induction [7, 12]: −88%^2 | mean maximum ex vivo cytokine inhibition ([7]; SAD, R848- or LPS-mediated induction, whole blood, 24-48 h post-dose): up to 97% | inhibition of R848 or LPS induction of 8 different pro-inflammatory cytokines ([7]; SAD, whole blood, maxima across cytokines): 79-97% | degradation of IRAK4 in the spleen and skin ([8]; mouse, in vivo): dose-dependent degradation | skin thickness ([8]; mouse, in vivo): reduction in skin thickness | IL-1β in the skin ([8]; p<0.0001): significant reduction | IL-6 in the skin ([8]; p<0.05, 300 mg/kg only): significant reduction | skin concentration of Compound A in HS or AD patient compared to healthy volunteer [9]: about 2 fold | metabolizing enzyme [10]: primarily metabolized by CYP3A4 | time dependent inhibition (TDI) of CYP3A4 ([10]; in vitro): potential time dependent inhibition (TDI) | inhibition of BCRP efflux [11]: inhibited BCRP efflux | substrate of breast cancer resistance protein (BCRP) [11]: substrate
